As usually defined, the IC50 is the midpoint of a concentration-inhibition curve.

The text below walks through data of patent US7608620B2, “LPAAT-β inhibitors and uses thereof” (Cell Therapeutics, Inc., priority 2000, dated 2009).

Each structure is given as a SMILES string.

The target in this experiment is T1, LPAAT-β (Homo sapiens, UniProt O15120).
T1 construct: the full-length human LPAAT-β cDNA was amplified by PCR; made in house; host or cells: Sf9 insect cells (baculovirus, pFastBac HTc); membrane fraction
T1 sequence (O15120 24-278): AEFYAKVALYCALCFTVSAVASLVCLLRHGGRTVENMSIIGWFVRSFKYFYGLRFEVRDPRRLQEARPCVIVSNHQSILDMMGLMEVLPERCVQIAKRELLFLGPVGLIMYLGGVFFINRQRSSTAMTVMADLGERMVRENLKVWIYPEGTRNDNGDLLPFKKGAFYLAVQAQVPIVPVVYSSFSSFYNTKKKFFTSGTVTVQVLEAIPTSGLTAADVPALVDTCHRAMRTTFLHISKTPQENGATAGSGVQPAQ
Description: LPAATβ colorimetric assay (DTNB detection of released CoA). The class given is biochemical. As to conditions: Sf9 cell membrane overexpressing LPAAT-β. Here is the method: For the construction of Baculovirus expression vectors, the full-length human LPAAT-β cDNA was amplified by PCR from the DNA template pCE9.LPAAT-β (West et al., DNA Cell Biol. 16:691-701 (1997)) using the primers 5′-TGATATCCGAAGAAGATCTTATGGAGCTGTGGCCGTGTC-3′ (olpb1F; SEQ ID NO:3) and 5′-CAGGCTCTAG ACTACTGGGC CGGCTGCAC-3′ (olpb1R; SEQ ID NO:4). The ˜870 bp fragment generated was reamplified by PCR using the primers 5° CCTACGTCG ACATGGAACAAAAATTGATATCCGAAGAAGATC-3′ (olpb2F; SEQ ID NO:5) and 5′-CAGGCTCTAG ACTACTGGGC CGGCTGCAC-3′ (olpb1R; SEQ ID NO:6). The ˜890 bp fragment generated was then cleaved with Sal I and Xba I for insertion into pFastBac™ HTc vector (Life Technologies, Gaithersberg, Md.) between the Sal I and Xba I sites for the generation of the plasmid pFB.LPAAT-β. This plasmid was then transformed into E. coli DH10Bac™ (Life Technologies, Gaithersberg, Md.) for the generation of recombinant Bacmid DNA for transfection into HighFive (Invitrogen, San Diego, Calif.) or SF9 insect cells for the production of recombinant Baculovirus stocks using the protocol described in the Bac-to-Bac® Baculovirus Expression System (Life Technologies, Gaithersberg, Md.), a eukaryotic expression system for generating recombinant baculovirus through site- specific transposition in E. coli. Viral stocks harvested from the transfected cells can then be used to infect fresh insect cells for the subsequent expression of LPAAT-β fusion protein with a poly-histidine tag and a myc-epitope near its N-terminus. The membrane fraction from these Sf9 cells would be the source of LPAAT enzyme.
For the preparation of membranes From Sf9 Cells, all steps are performed on ice or at 4° C. Sf9 cell pellets (˜10^8 cells) were thawed and resuspended in 1-2 ml of buffer A (20 mM Hepes, pH 7.5, 1 mM DTT, 1 mM EDTA, 20% w/v glycerol, 1 mM Benzamidine, 1 μg/ml soybean trypsin inhibitor (SBTI), 1 μg/ml pepstatin A) w/o DTT but with 1 mM Pefabloc. The cells were lysed by sonication using a Branson Sonifier at output=2, duty cycle=2, 10 pulses each at 10 s. with the tip of small sonicator probe submerged but not touching the walls. DTT was then added to 1 mM from a 1 M stock. The samples were centrifuged at 1500 rpm for 5 min. The low speed supernatant was saved and centrifuged (TLA 100.3 rotor, polycarbonate tubes, 2 ml/tube or 1.5 ml/tube minimum) at 100000×g for 1 hr. The high speed pellet was resuspend in Buffer A with a probe sonicator (10 pulses @ output #2 and duty cycle 20%) as a source of LPAAT enzyme.
LPAAT-β catalyzes the transfer of an acyl group from a donor such as acyl-CoA to LPA. The transfer of the acyl group from acyl-CoA to LPA leads to the release of free CoA, which can be reacted with the thiol reagent, 5,5′-dithiobis(2-nitrobenzoic acid) (DTNB). The reaction between DTNB and the free sulfhydryl group from CoA generates a yellow-colored product, 3-carboxylato-4-nitrothiophenolate (CNP), that absorbs at 413 nm. LPAAT-β derived from Sf9 cell membrane overexpressing LPAAT-β were resuspended in HEPES saline buffer (20 mM HEPES pH 7.5, 150 mM NaCl), 1 mg/ml BSA and 72 μl aliquots were distributed into 96-well microtiter plates. 8 μl of compound of interest at 200 μM dissolved in 100% DMSO was added into each well. 20 μl of 1 mM 18:1-CoA and 1 mM sn-1-18: 1 lysoPA was then added to each well to initiate the reaction and allowed to run at room temperature for 25 min. 100 μl of 1 mM DTNB in 100% ethanol was then added to each well to quench the reaction and for color development. The absorbance at 405 nm, measured using a spectrophotometer plate reader, is proportional to the activity of LPAAT-β in the sample. This colorimetric assay was used for the high throughput screening of LPAAT inhibitors. […] Compounds that gave a reading of less than 0.06 arbitrary units (indicated by arrow on right margin) were selected for further study.
Take `CCCNc1nc(Cl)nc(Nc2ccc(Cl)cc2)n1` [CT-116988, 6-chloro-N-2-(4-chlorophenyl)-N-4-propyl-[1,3,5]triazine-2,4-diamine]: the half-maximal inhibitory concentration (IC50) is 160 nM.
The same measure for `CCCNc1nc(Nc2ccc(Cl)cc2)nc(OC)n1` [CT-117147, N-(4-chlorophenyl)-6-methoxy-N′-propyl-[1,3,5]triazine-2,4-diamine]: 3800 nM.
For `Clc1ccc(Nc2nc(Cl)nc(Nc3ccc4c(c3)OCO4)n2)cc1` [CT-31978, N-benzo[1,3]dioxol-5-yl-6-chloro-N′-(4-chlorophenyl)-[1,3,5]triazine-2,4-diamine], the 50% inhibitory concentration (IC50) was determined as 1000 nM.
`COc1ccc(Nc2nc(Cl)nc(Nc3ccccc3)n2)cc1` [CT-31942, 6-chloro-N-(4-methoxyphenyl)-N′-phenyl-[1,3,5]triazine-2,4-diamine]: the IC50 came to 400 nM.
As to `Clc1nc(Nc2ccccc2)nc(Nc2ccc3c(c2)OCO3)n1` [CT-32042, N-benzo[1,3]dioxol-5-yl-6-chloro-N′-phenyl-[1,3,5]triazine-2,4-diamine], the IC50 was found to be 200 nM.
For the compound `Clc1nc(Nc2ccccc2)nc(Nc2ccc3c(c2)CCC3)n1` [CT-32099, 6-chloro-N-indan-5-yl-N′-phenyl-[1,3,5]triazine-2,4-diamine], the IC50 came to 650 nM.
The same measure for `CSc1nc(Nc2ccccc2)nc(Nc2ccc(Cl)cc2)n1` [CT-31888, N-(4-chlorophenyl)-6-methylsulfanyl-N′-phenyl-[1,3,5]triazine-2,4-diamine]: 3100 nM.
The same measure for `COc1ccc(Nc2nc(Cl)nc(Nc3ccc(Cl)cc3)n2)cc1` [CT-31867, 6-chloro-N-(4-chlorophenyl)-N′-(4-methoxy-phenyl)-[1,3,5]triazine-2,4-diamine]: 750 nM.
The same measure for `Clc1nc(Nc2ccccc2)nc(Nc2ccc3c(c2)OCCO3)n1` [CT-32028, 6-chloro-N-(2,3-dihydrobenzo[1,4]dioxin-6-yl)-N′-phenyl-[1,3,5]triazine-2,4-diamine]: 200 nM.
